Test results: the NIST ThermoML archive (doi:10.1016/j.fluid.2017.12.001)
Numbers after ± are expanded uncertainties.

Assay: xn = mol fraction of the nth substance listed
Conditions: 100.9 kPa, Liquid; for viscosity: Concentric cylinders viscometry; for speed of sound: Single path-length method; for mass density: Vibrating tube method

CCCC(=O)[O-].CC[NH2+]CC [diethylammonium butanoate] + O
Conditions	mass density [kg/m3]	speed of sound [m/s]	viscosity [mPa·s]
283.15 K, x1 = 0.0122	–	–	2.24 ± 0.02
283.15 K, x1 = 0.0123	1003.65 ± 0.4	1576.3 ± 0.23	–
283.15 K, x1 = 0.0451	–	–	6.91 ± 0.04
283.15 K, x1 = 0.0453	1013.08 ± 0.4	1794.6 ± 0.4	–
283.15 K, x1 = 0.0999	–	–	19.26 ± 0.08
283.15 K, x1 = 0.1005	1011.54 ± 0.4	1814.6 ± 0.28	–
283.15 K, x1 = 0.143	–	–	32.03 ± 0.14
283.15 K, x1 = 0.1439	1001.71 ± 0.41	1786.4 ± 0.34	–
283.15 K, x1 = 0.2051	–	–	56.72 ± 0.23
283.15 K, x1 = 0.2067	989.91 ± 0.41	1733.5 ± 0.41	–
283.15 K, x1 = 0.3064	–	–	106.48 ± 1.2
283.15 K, x1 = 0.3096	976.25 ± 0.42	–	–
283.15 K, x1 = 0.4879	–	–	158.58 ± 2.6
283.15 K, x1 = 0.4951	956.67 ± 0.47	1577.4 ± 0.65	–
283.15 K, x1 = 0.6684	–	–	158.29 ± 2.7
283.15 K, x1 = 0.6812	941.81 ± 0.55	1516.2 ± 0.76	–
283.15 K, x1 = 0.7974	930.25 ± 0.62	1494.8 ± 0.84	–
283.15 K, x1 = 0.974	925.8 ± 0.77	1460.5 ± 0.98	130.18 ± 2.1
285.65 K, x1 = 0.0122	–	–	2.07 ± 0.02
285.65 K, x1 = 0.0451	–	–	6.16 ± 0.03
285.65 K, x1 = 0.0999	–	–	16.84 ± 0.07
285.65 K, x1 = 0.143	–	–	27.94 ± 0.12
285.65 K, x1 = 0.2051	–	–	49.1 ± 0.23
285.65 K, x1 = 0.3064	–	–	91.1 ± 0.83
285.65 K, x1 = 0.4879	–	–	135.58 ± 2
285.65 K, x1 = 0.6684	–	–	135.69 ± 2.1
285.65 K, x1 = 0.974	–	–	112.13 ± 1.6
288.15 K, x1 = 0.0122	–	–	1.91 ± 0.02
288.15 K, x1 = 0.0123	1002.55 ± 0.4	1586.3 ± 0.23	–
288.15 K, x1 = 0.0451	–	–	5.5 ± 0.03
288.15 K, x1 = 0.0453	1010.64 ± 0.4	1786.6 ± 0.26	–
288.15 K, x1 = 0.0999	–	–	14.79 ± 0.06
288.15 K, x1 = 0.1005	1007.9 ± 0.4	1802.4 ± 0.29	–
288.15 K, x1 = 0.143	–	–	24.41 ± 0.11
288.15 K, x1 = 0.1439	996.76 ± 0.41	1773 ± 0.34	–
288.15 K, x1 = 0.2051	–	–	42.55 ± 0.2
288.15 K, x1 = 0.2067	985.95 ± 0.41	1718.7 ± 0.41	–
288.15 K, x1 = 0.3064	–	–	78.15 ± 0.57
288.15 K, x1 = 0.3096	972.8 ± 0.42	–	–
288.15 K, x1 = 0.4879	–	–	116.04 ± 1.5
288.15 K, x1 = 0.4951	952.3 ± 0.47	1561.4 ± 0.65	–
288.15 K, x1 = 0.6684	–	–	116.61 ± 1.6
288.15 K, x1 = 0.6812	938.34 ± 0.55	1499.7 ± 0.75	–
288.15 K, x1 = 0.7974	926.65 ± 0.62	1479.8 ± 0.84	–
288.15 K, x1 = 0.974	922.1 ± 0.77	1448.3 ± 0.98	96.9 ± 1.3
290.65 K, x1 = 0.0122	–	–	1.77 ± 0.02
290.65 K, x1 = 0.0451	–	–	4.96 ± 0.03
290.65 K, x1 = 0.0999	–	–	13.09 ± 0.06
290.65 K, x1 = 0.143	–	–	21.48 ± 0.09
290.65 K, x1 = 0.2051	–	–	37.08 ± 0.17
290.65 K, x1 = 0.3064	–	–	67.44 ± 0.39
290.65 K, x1 = 0.4879	–	–	99.81 ± 1.1
290.65 K, x1 = 0.6684	–	–	100.54 ± 1.2
290.65 K, x1 = 0.974	–	–	84.07 ± 1
293.15 K, x1 = 0.0122	–	–	1.64 ± 0.02
293.15 K, x1 = 0.0123	1001.45 ± 0.4	1594.8 ± 0.23	–
293.15 K, x1 = 0.0451	–	–	4.49 ± 0.03
293.15 K, x1 = 0.0453	1008.2 ± 0.4	1779.5 ± 0.26	–
293.15 K, x1 = 0.0999	–	–	11.64 ± 0.05
293.15 K, x1 = 0.1005	1004.13 ± 0.4	1789.3 ± 0.29	–
293.15 K, x1 = 0.143	–	–	18.97 ± 0.08
293.15 K, x1 = 0.1439	992.35 ± 0.41	1759.3 ± 0.34	–
293.15 K, x1 = 0.2051	–	–	32.47 ± 0.15
293.15 K, x1 = 0.2067	984.2 ± 0.41	1705.2 ± 0.41	–
293.15 K, x1 = 0.3064	–	–	58.44 ± 0.27
293.15 K, x1 = 0.3096	969.35 ± 0.42	1629.1 ± 0.49	–
293.15 K, x1 = 0.4879	–	–	86.09 ± 0.8
293.15 K, x1 = 0.4951	949.58 ± 0.47	1539.3 ± 0.63	–
293.15 K, x1 = 0.6684	–	–	87.06 ± 0.9
293.15 K, x1 = 0.6812	937.26 ± 0.55	1485.3 ± 0.75	–
293.15 K, x1 = 0.7974	923.05 ± 0.62	1464.7 ± 0.84	–
293.15 K, x1 = 0.974	918.5 ± 0.76	1433.9 ± 0.98	73.19 ± 0.81
295.65 K, x1 = 0.0122	–	–	1.53 ± 0.02
295.65 K, x1 = 0.0451	–	–	4.05 ± 0.03
295.65 K, x1 = 0.0999	–	–	10.38 ± 0.05
295.65 K, x1 = 0.143	–	–	16.84 ± 0.07
295.65 K, x1 = 0.2051	–	–	28.55 ± 0.13
295.65 K, x1 = 0.3064	–	–	50.88 ± 0.21
295.65 K, x1 = 0.4879	–	–	74.58 ± 0.58
295.65 K, x1 = 0.6684	–	–	75.69 ± 0.69
295.65 K, x1 = 0.974	–	–	63.97 ± 0.66
298.15 K, x1 = 0.0122	–	–	1.43 ± 0.02
298.15 K, x1 = 0.0123	1000.1 ± 0.4	1601.8 ± 0.22	–
298.15 K, x1 = 0.0451	–	–	3.69 ± 0.03
298.15 K, x1 = 0.0453	1005.56 ± 0.4	1770.9 ± 0.25	–
298.15 K, x1 = 0.0999	–	–	9.31 ± 0.04
298.15 K, x1 = 0.1005	1000.56 ± 0.4	1776.6 ± 0.29	–
298.15 K, x1 = 0.143	–	–	15.02 ± 0.07
298.15 K, x1 = 0.1439	988.22 ± 0.41	1745.3 ± 0.34	–
298.15 K, x1 = 0.2051	–	–	25.19 ± 0.12
298.15 K, x1 = 0.2067	979.99 ± 0.41	1690.3 ± 0.41	–
298.15 K, x1 = 0.3064	–	–	44.32 ± 0.23
298.15 K, x1 = 0.3096	965.6 ± 0.42	1613.5 ± 0.49	–
298.15 K, x1 = 0.4879	–	–	64.82 ± 0.43
298.15 K, x1 = 0.4951	945.79 ± 0.47	1523.9 ± 0.63	–
298.15 K, x1 = 0.6684	–	–	66.04 ± 0.53
298.15 K, x1 = 0.6812	933.71 ± 0.55	1468.9 ± 0.75	–
298.15 K, x1 = 0.7974	919.45 ± 0.62	1455.8 ± 0.84	–
298.15 K, x1 = 0.974	914.7 ± 0.76	1417.5 ± 0.98	56.14 ± 0.56
300.65 K, x1 = 0.0122	–	–	1.34 ± 0.02
300.65 K, x1 = 0.0451	–	–	3.36 ± 0.03
300.65 K, x1 = 0.0999	–	–	8.4 ± 0.04
300.65 K, x1 = 0.143	–	–	13.44 ± 0.06
300.65 K, x1 = 0.2051	–	–	22.34 ± 0.1
300.65 K, x1 = 0.3064	–	–	38.93 ± 0.2
300.65 K, x1 = 0.4879	–	–	56.68 ± 0.33
300.65 K, x1 = 0.6684	–	–	57.86 ± 0.43
300.65 K, x1 = 0.974	–	–	49.5 ± 0.51
303.15 K, x1 = 0.0122	–	–	1.26 ± 0.02
303.15 K, x1 = 0.0123	998.8 ± 0.4	1607.5 ± 0.22	–
303.15 K, x1 = 0.0451	–	–	3.08 ± 0.02
303.15 K, x1 = 0.0453	1002.83 ± 0.4	1762.1 ± 0.25	–
303.15 K, x1 = 0.0999	–	–	7.62 ± 0.04
303.15 K, x1 = 0.1005	997.23 ± 0.4	1763.5 ± 0.29	–
303.15 K, x1 = 0.143	–	–	12.08 ± 0.05
303.15 K, x1 = 0.1439	984.45 ± 0.41	1731.1 ± 0.34	–
303.15 K, x1 = 0.2051	–	–	19.91 ± 0.09
303.15 K, x1 = 0.2067	976.3 ± 0.41	1675.2 ± 0.41	–
303.15 K, x1 = 0.3064	–	–	34.33 ± 0.18
303.15 K, x1 = 0.3096	960.9 ± 0.42	1597.6 ± 0.49	–
303.15 K, x1 = 0.4879	–	–	49.68 ± 0.32
303.15 K, x1 = 0.4951	941.96 ± 0.47	1509.1 ± 0.63	–
303.15 K, x1 = 0.6684	–	–	50.88 ± 0.36
303.15 K, x1 = 0.6812	930.52 ± 0.55	1452.3 ± 0.75	–
303.15 K, x1 = 0.7974	915.75 ± 0.62	1439.9 ± 0.84	–
303.15 K, x1 = 0.974	910.9 ± 0.76	1400.2 ± 0.98	43.73 ± 0.45
305.65 K, x1 = 0.0122	–	–	1.19 ± 0.02
305.65 K, x1 = 0.0451	–	–	2.84 ± 0.02
305.65 K, x1 = 0.0999	–	–	6.89 ± 0.04
305.65 K, x1 = 0.143	–	–	10.89 ± 0.05
305.65 K, x1 = 0.2051	–	–	17.8 ± 0.08
305.65 K, x1 = 0.3064	–	–	30.43 ± 0.16
305.65 K, x1 = 0.4879	–	–	43.74 ± 0.28
305.65 K, x1 = 0.6684	–	–	44.91 ± 0.35
305.65 K, x1 = 0.974	–	–	38.76 ± 0.4
308.15 K, x1 = 0.0122	–	–	1.12 ± 0.02
308.15 K, x1 = 0.0123	–	1611.9 ± 0.22	–
308.15 K, x1 = 0.0451	–	–	2.62 ± 0.02
308.15 K, x1 = 0.0453	–	1753.1 ± 0.25	–
308.15 K, x1 = 0.0999	–	–	6.28 ± 0.03
308.15 K, x1 = 0.1005	–	1750.2 ± 0.29	–
308.15 K, x1 = 0.143	–	–	9.83 ± 0.05
308.15 K, x1 = 0.1439	–	1716.8 ± 0.35	–
308.15 K, x1 = 0.2051	–	–	15.99 ± 0.07
308.15 K, x1 = 0.3064	–	–	27.04 ± 0.14
308.15 K, x1 = 0.4879	–	–	38.47 ± 0.24
308.15 K, x1 = 0.6684	–	–	39.77 ± 0.31
308.15 K, x1 = 0.974	–	–	34.5 ± 0.36
